Measured values published in patent US9868724B2, “Compounds” (GLAXOSMITHKLINE INTELLECTUAL PROPERTY DEVELOPMENT LIMITED, priority 2014, dated 2018).

How the values were obtained:
RORγ-LBD = biological target: T1, RORγ-LBD (Homo sapiens, UniProt P51449); test: Fluorescence Energy Transfer (FRET) Assay; assay type: biochemical; settings: mean pIC50 of multiple test results if tested more than once; SRC1/RORγ-LBD with 0.2 μM surrogate agonist
T1 construct: adding an appropriate amount of biotinylated RORγ-LBD and APC-labeled streptavidin
T1 sequence (P51449 269-508 limits assumed): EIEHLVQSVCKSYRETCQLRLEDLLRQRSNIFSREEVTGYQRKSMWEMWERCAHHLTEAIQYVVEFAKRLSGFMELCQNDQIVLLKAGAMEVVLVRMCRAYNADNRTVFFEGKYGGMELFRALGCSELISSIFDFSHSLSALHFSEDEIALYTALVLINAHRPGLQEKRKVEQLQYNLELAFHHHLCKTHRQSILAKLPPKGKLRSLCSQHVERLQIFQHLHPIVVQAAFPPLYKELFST
Method: The assays were performed in an assay buffer consisting of 50 mM NaF, 50 mM 3-(N-morpholino)propanesulfonic acid, pH 7.5, 50 μM 3-[(3-cholamidopropyl)dimethylammonio]-propanesulfonate, 0.1 mg/mL bovine serum albumin, and 10 mM dithiothreitol in 384-well plates (Greiner 784076, Longwood, Fla.). The total volume was 10 μL/well. The europium-labeled SRC1 solution was prepared by adding an appropriate amount of biotinylated SRC and europium labeled streptavidin (PerkinElmer Life and Analytical Sciences, Waltham, Mass.) into assay buffer, with final concentrations of 27 and 3.3 nM, respectively. The allophycocyanin (APC)-labeled-LBD solution was prepared by adding an appropriate amount of biotinylated RORγ-LBD and APC-labeled streptavidin (CR130-100; PerkinElmer Life and Analytical Sciences) at a final concentration of 33 nM each. After 15 min of incubation at room temperature, a 20-fold excess of biotin was added to block the remaining free streptavidin. […] The plates were incubated for 1 h at room temperature and then read on ViewLux (PerkinElmer Life and Analytical Sciences) in LANCE mode configured for europeum-APC labels. Data were collected and analyzed by Activitybase.

Mouse CD4+ cells = test: Th17 Cell Differentiation Assay; assay type: cell-based; settings: mean pIC50 of multiple test results if tested more than once, IL-17 ELISA
Method: Mouse CD4+ cells were purified using the CD4+ T Cell Isolation II Kit according to manufacturer's instructions (Miltenyi Biotec). 96 well plates were pre-coated with anti-mCD3 antibody. Un-coated wells were used as controls. CD4+ Cells were resuspended in RPMI 1640 complete medium and were added to the 96-well plates. Cytokine cocktail and the compound were then added to the wells. Antibodies and cytokines (all from R&D Systems) used in the assay were selected from the following: anti-mCD3; anti-mCD28; anti-mIFNγ; anti-mIL4; mIL-6; mIL-23; mIL-1β; hTGF-β1. The culture was incubated at 37° C. for 3 days and supernatants were collected for ELISA. The IL-17 ELISAs were performed according to manufacturer's instructions (R&D Systems). The results were analyzed using Prism software with non-linear regression to determine pIC50.
The Th17 differentiation culture described above was maintained for 5 days and cells were analyzed by IL-17 and IFN-γ intracellular staining according to manufacturer's instructions (BD Biosciences).

[1] = biological target: T2, RORγ ligand binding domain (RORγ-LBD) (Homo sapiens, UniProt P51449); test: Dual Fluorescence Energy Transfer (FRET) Assay; assay type: biochemical; settings: mean pIC50 of multiple test results if tested more than once; RORγ-LBD/SRC1(2) peptide interaction
T2 construct: modified polyhistidine tag MKKHHHHHHLVPRGS (N); made in house; host or cells: E. coli BL21(DE3)
T2 sequence (P51449 263-518): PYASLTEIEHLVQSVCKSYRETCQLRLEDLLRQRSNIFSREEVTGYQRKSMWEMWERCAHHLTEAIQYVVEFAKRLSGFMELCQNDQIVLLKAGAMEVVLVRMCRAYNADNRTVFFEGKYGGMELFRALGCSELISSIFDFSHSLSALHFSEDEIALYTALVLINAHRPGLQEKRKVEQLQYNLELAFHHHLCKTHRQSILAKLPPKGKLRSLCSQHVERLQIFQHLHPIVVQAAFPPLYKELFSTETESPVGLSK
Excerpt: This assay is based on the knowledge that nuclear receptors interact with cofactors (transcription factors) in a ligand dependent manner. RORγ is a typical nuclear receptor in that it has an AF2 domain in the ligand binding domain (LBD) which interacts with co-activators. The sites of interaction have been mapped to the LXXLL motifs in the co-activator SRC1(2) sequences. Short peptide sequences containing the LXXLL motif mimic the behavior of full-length co-activator.
The assay measures ligand-mediated interaction of the co-activator peptide with the purified bacterial-expressed RORγ ligand binding domain (RORγ-LBD) to indirectly assess ligand binding. RORγ has a basal level of interaction with the co-activator SRC1(2) in the absence of ligand, thus it is possible to find ligands that inhibit or enhance the RORγ/SRC1(2) interaction.
Human RORγ Ligand Binding Domain (RORγ-LBD) was expressed in E. coli strain BL21(DE3) as an amino-terminal polyhistidine tagged fusion protein. DNA encoding this recombinant protein was sub-cloned into a modified pET21a expression vector (Novagen). […]
Approximately 50 g E. coli cell pellet was resuspended in 300 mL of lysis buffer (30 mM imidazole pH 7.0 and 150 mM NaCl). […] After washing to baseline absorbance with the equilibration buffer, the column was developed with a gradient from 30 to 500 mM imidazole pH 7.0. […]

RORγ = biological target: T3, RORγ (Homo sapiens, UniProt P51449); test: Jurkat Cell Luciferase Assay; assay type: cell-based; settings: mean pIC50 of multiple test results if tested more than once; Jurkat cells, human IL17 promoter luciferase reporter, RORγt overexpression
T3 construct: expressed in transfected cells
T3 sequence (P51449 1-497 isoform P51449-2): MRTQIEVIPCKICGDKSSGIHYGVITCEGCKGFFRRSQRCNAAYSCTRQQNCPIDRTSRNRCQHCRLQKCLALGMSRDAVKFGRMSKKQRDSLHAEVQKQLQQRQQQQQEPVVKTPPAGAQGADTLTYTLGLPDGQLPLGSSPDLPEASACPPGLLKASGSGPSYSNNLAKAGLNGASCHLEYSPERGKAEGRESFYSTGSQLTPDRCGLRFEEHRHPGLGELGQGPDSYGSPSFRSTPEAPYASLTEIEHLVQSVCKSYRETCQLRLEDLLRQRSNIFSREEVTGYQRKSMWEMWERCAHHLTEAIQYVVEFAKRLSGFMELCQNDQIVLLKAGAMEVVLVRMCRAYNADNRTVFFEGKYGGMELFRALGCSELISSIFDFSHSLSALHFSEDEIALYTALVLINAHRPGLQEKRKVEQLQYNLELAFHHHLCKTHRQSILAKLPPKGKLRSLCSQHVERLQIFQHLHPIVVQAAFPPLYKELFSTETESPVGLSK
Excerpt: RORγ is known to bind to a CNS (conserved non-coding sequences) enhancer element in the IL17 promoter. In this assay, RORγ activity is indirectly assessed using a luciferase reporter construct which contains the human IL17 promoter having the RORγ-specific CNS enhancer element. Inhibition of RORγ activity by a compound will result in a decrease in luciferase activity of Jurkat cells transfected with the reporter construct.
For the luciferase reporter plasmid, the 3 Kb human IL17 promoter containing the RORγ-specific CNS enhancer element was PCR amplified from human genomic DNA and cloned into a pGL4-Luc2/hygro reporter plasmid sequentially as XhoI-HindIII (1.1 Kb) and KpnI-XhoI (1.9 Kb) fragments. For the 1.1 Kb fragment, PCR was used to amplify human IL17 proximal promoter region from genomic DNA of 293T cells using primers as follows: forward primer, 5′-[…]-3′ (XhoI site is underlined) and reverse primer, 5′-[…]-3′ (HindIII site is underlined). The 1.1 kb DNA bands were excised, purified, and inserted into pMD19-T Simple Vector (Takara). […]
Compounds were dissolved in DMSO at three concentrations, 10 mM, 400 uM and 16 uM, and were dispensed into 384-wells assay plate at 40 nl, 12.5 nl, 5 nl respectively. The volume was adjusted with pure DMSO to a give a final uniform volume of 40 nl Jurkat cells described above were counted and centrifuged. […]

IC50 (RORγ-LBD) [nM]	IC50 (Mouse CD4+ cells) [nM]	IC50 [1] [nM]	IC50 (RORγ) [nM]	SMILES
~126	~81.3	~200	~25.1	Cc1ncc(C(=O)Nc2cc(Cl)cc(CN3CCN(C(=O)[C@H]4CCOC4)[C@@H](C)C3)c2C)cc1F [Example 57, N-(5-chloro-2-methyl-3-(((S)-3-methyl-4-((S)-tetrahydrofuran-3-carbonyl)piperazin-1-yl)methyl)phenyl)-5-fluoro-6-methylnicotinamide]
~251	~17.4	~794	~12.6	Cc1ncc(C(=O)Nc2cc(Cl)cc(CN3CCN(C(=O)[C@@H]4CCOC4)[C@@H](C)C3)c2C)cc1C#N (single isomer, unassigned) [Example 91]
